These results are taken from ChEMBL document CHEMBL1146741, “Cycloalkyl[b][1,4]benzodiazepinoindoles are agonists at the human 5-HT2C receptor” (Bioorg Med Chem Lett, 2004).

SMILES strings stand for the structures. Some results are limits rather than exact numbers.

In test [1] the target is 5-hydroxytryptamine receptor 2B (Homo sapiens) (UniProt P41595). Kind of test: Binding affinity against 5-hydroxytryptamine 2B receptor.
The target in test [2] is Sodium-dependent serotonin transporter (Rattus norvegicus) (UniProt P31652). Kind of test: Percent binding affinity against serotonin transporter. The conditions noted are these: concentration not given here.
Sequence of Sodium-dependent serotonin transporter (Rattus norvegicus) (P31652 whole entry, looked up): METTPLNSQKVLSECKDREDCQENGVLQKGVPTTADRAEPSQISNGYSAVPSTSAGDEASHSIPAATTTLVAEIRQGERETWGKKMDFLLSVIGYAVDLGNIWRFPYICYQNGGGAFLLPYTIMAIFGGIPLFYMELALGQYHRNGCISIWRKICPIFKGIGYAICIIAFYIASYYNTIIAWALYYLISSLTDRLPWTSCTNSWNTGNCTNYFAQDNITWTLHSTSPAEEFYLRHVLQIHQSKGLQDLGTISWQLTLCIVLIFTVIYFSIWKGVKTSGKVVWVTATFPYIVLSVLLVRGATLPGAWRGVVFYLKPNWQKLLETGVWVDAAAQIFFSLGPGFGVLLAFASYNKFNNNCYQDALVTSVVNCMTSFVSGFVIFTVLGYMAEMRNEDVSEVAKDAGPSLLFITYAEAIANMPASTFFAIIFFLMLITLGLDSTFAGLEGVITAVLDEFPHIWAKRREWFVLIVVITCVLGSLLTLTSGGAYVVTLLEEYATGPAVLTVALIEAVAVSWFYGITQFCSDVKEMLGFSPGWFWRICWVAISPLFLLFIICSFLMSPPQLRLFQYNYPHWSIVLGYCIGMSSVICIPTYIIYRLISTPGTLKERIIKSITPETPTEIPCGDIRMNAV

As to `c1cc2c3c(c1)c1c(n3CCNC2)CCCCCC1`, in test [1], the Ki is above 5 µM. Moreover, the inhibition in test [2] amounted to 14%.
